PubChem BioAssay AID1918995 (Molecular Pharmacology Branch, DTP, NCI, 2023)
“And” between values parts separate entries of the source, which are not always exact repeats. Identical values can stand only once.

Tested on: 324938-238-R-J1-PDC complex spheroid growth, % test/control
Assay: Anticancer human tumor 324938-238-R-J1-PDC patient-derived bladder carcinoma cell line growth inhibition [AhR]
Details: for viability, T/C: stronger effect = lower value
How it was run: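 Complex tumor spheroids co-cultured with HUVEC and human MSC stroma; AhR antagonists tested in combination with standard-of-care and investigational agents. Top concentration at or near clinical Cmax (else 10 microM), half-log dilutions; growth expressed as percent test/control.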

[1] = curve of first compound, second compound 0.1 µM
[2] = curve of first compound, second compound 0.316 µM
[3] = curve of first compound, second compound 1 µM
[4] = curve of first compound, second compound 3.16 µM
[5] = curve of first compound, second compound 10 µM
[6] = second compound 0.1 µM, first compound 0.0316 µM
[7] = second compound 0.1 µM, first compound 0.1 µM
[8] = second compound 0.1 µM, first compound 0.316 µM
[9] = second compound 0.1 µM, first compound 1 µM
[10] = second compound 0.1 µM, first compound 3.16 µM
[11] = second compound 0.1 µM, first compound 10 µM
[12] = second compound 0.316 µM, first compound 0.0316 µM
[13] = second compound 0.316 µM, first compound 0.1 µM
[14] = second compound 0.316 µM, first compound 0.316 µM
[15] = second compound 0.316 µM, first compound 1 µM
[16] = second compound 0.316 µM, first compound 3.16 µM
[17] = second compound 0.316 µM, first compound 10 µM
[18] = second compound 1 µM, first compound 0.0316 µM
[19] = second compound 1 µM, first compound 0.1 µM
[20] = second compound 1 µM, first compound 0.316 µM
[21] = second compound 1 µM, first compound 1 µM
[22] = second compound 1 µM, first compound 3.16 µM
[23] = second compound 1 µM, first compound 10 µM
[24] = second compound 3.16 µM, first compound 0.0316 µM
[25] = second compound 3.16 µM, first compound 0.1 µM
[26] = second compound 3.16 µM, first compound 0.316 µM
[27] = second compound 3.16 µM, first compound 1 µM
[28] = second compound 3.16 µM, first compound 3.16 µM
[29] = second compound 3.16 µM, first compound 10 µM
[30] = second compound 10 µM, first compound 0.0316 µM
[31] = second compound 10 µM, first compound 0.1 µM
[32] = second compound 10 µM, first compound 0.316 µM
[33] = second compound 10 µM, first compound 1 µM
[34] = second compound 10 µM, first compound 3.16 µM
[35] = second compound 10 µM, first compound 10 µM
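Further: spheroids exposed to agents for seven days before viability read.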

## CC(C)c1c(-c2ccccc2)nc2c(C#N)c[nH]n2c1=O + CC(CO)NC(=O)c1cc(-c2ccc(Cl)cc2)nn(-c2cnn(C)c2)c1=O
[1]
  IC50: > 10000 nM
[2]
  IC50: > 10000 nM
[3]
  IC50: > 10000 nM
[4]
  IC50: > 10000 nM
[5]
  IC50: > 10000 nM
[6]
  viability, T/C: 110%
[7]
  viability, T/C: 115%
[8]
  viability, T/C: 88.1%
[9]
  viability, T/C: 87.2%
[10]
  viability, T/C: 92.5%
[11]
  viability, T/C: 88%
[12]
  viability, T/C: 94.7%
[13]
  viability, T/C: 98.9%
[14]
  viability, T/C: 92.8%
[15]
  viability, T/C: 78.8%
[16]
  viability, T/C: 88.5%
[17]
  viability, T/C: 81.2%
[18]
  viability, T/C: 87.5%
[19]
  viability, T/C: 88.1%
[20]
  viability, T/C: 87.4%
[21]
  viability, T/C: 76.5%
[22]
  viability, T/C: 89.2%
[23]
  viability, T/C: 75.8%
[24]
  viability, T/C: 73.4%
[25]
  viability, T/C: 76.4%
[26]
  viability, T/C: 71%
[27]
  viability, T/C: 64.4%
[28]
  viability, T/C: 63.4%
[29]
  viability, T/C: 60.9%
[30]
  viability, T/C: 65.4%
[31]
  viability, T/C: 67%
[32]
  viability, T/C: 64%
[33]
  viability, T/C: 57.9%
[34]
  viability, T/C: 54.9%
[35]
  viability, T/C: 56.5%

## COc1cccc2c1C(=O)c1c(O)c3c(c(O)c1C2=O)CC(O)(C(=O)CO)CC3OC1CC(N)C(O)C(C)O1 (stereo unspecified) + Cc1cncc(-c2nc(NCCc3c[nH]c4ccccc34)c3ncn(C(C)C)c3n2)c1
[1]
  IC50: 336 nM
[2]
  IC50: 367 nM
[3]
  IC50: 291 nM
[4]
  IC50: 181 nM
[5]
  IC50: < 31.6 nM
[6]
  viability, T/C: 84.2%
[7]
  viability, T/C: 95.7%
[8]
  viability, T/C: 52.8%
[9]
  viability, T/C: 0.98%
[10]
  viability, T/C: 0.76%
[11]
  viability, T/C: 0.41%
[12]
  viability, T/C: 65.7%
[13]
  viability, T/C: 94.2%
[14]
  viability, T/C: 57.3%
[15]
  viability, T/C: 0.94%
[16]
  viability, T/C: 0.57%
[17]
  viability, T/C: 0.38%
[18]
  viability, T/C: 90.7%
[19]
  viability, T/C: 102%
[20]
  viability, T/C: 46.3%
[21]
  viability, T/C: 0.36%
[22]
  viability, T/C: 1.27%
[23]
  viability, T/C: 0.47%
[24]
  viability, T/C: 81.8%
[25]
  viability, T/C: 62.1%
[26]
  viability, T/C: 38.9%
[27]
  viability, T/C: 0.31%
[28]
  viability, T/C: 1.98%
[29]
  viability, T/C: 0.43%
[30]
  viability, T/C: 4.55%
[31]
  viability, T/C: 12.7%
[32]
  viability, T/C: 1.27%
[33]
  viability, T/C: 0.29%
[34]
  viability, T/C: 0.45%
[35]
  viability, T/C: 0.62%

## O=C(C=Cc1cccc(S(=O)(=O)Nc2ccccc2)c1)NO
Compound 0.0316 µM
  viability, T/C: 100% and 110% and 114%
Compound 0.1 µM
  viability, T/C: 92% and 98.7% and 110%
Compound 0.316 µM
  viability, T/C: 109% and 89.2% and 81.5%
Compound 1 µM
  viability, T/C: 85.5% and 66.9% and 72.5%
Compound 3.16 µM
  viability, T/C: 46% and 49.9% and 51.9%
Curve of compound
  IC50: 2790 nM and 2980 nM and 2550 nM
